# Measured values published in US10368545B2, “Substituted 2-thioimidazolylcarboxamides as pesticides” (BAYER CROPSCIENCE AKTIENGESELLSCHAFT, priority 2015, dated 2019).
# Where “and” joins values, the source holds several entries; their conditions need not be identical. Equal values may be shown once.
# Test system: not listed separately
# Test: log P by HPLC on reversed-phase C18 columns (OECD Guideline 117)
# Format: physicochemical
# Settings: method [a]
# Outline: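 Reversed-phase C18 HPLC per OECD 117, LC-MS with a linear 10% to 95% acetonitrile gradient. Acidic method at pH 2.7 with 0.1% formic acid; neutral method at pH 7.8 with 0.001 M ammonium hydrogencarbonate.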
row,Compound,logP[a]
1,Cc1cc(C)nc(Sc2ncc(C(=O)Nc3cccnc3)n2C)n1 [I-A-4],1.55
2,CCCCCSc1ncc(C(=O)N(C)c2cccnc2)n1C [I-A-6],2.03
3,CN(C(=O)c1cnc(SCc2ccccc2)n1C)c1cccnc1 [I-A-7],1.68
4,CN(C(=O)c1c(Cl)nc(Sc2ncccn2)n1C)c1cccnc1 [I-A-15],1.24
5,COCCCSc1ncc(C(=O)N(C)c2cccnc2)n1C [I-A-20],1.04
6,CC(C)=CCSc1ncc(C(=O)N(C)c2cccnc2)n1C [I-A-35],1.61
7,CON=C(C)CSc1ncc(C(=O)N(C)c2cccnc2)n1C [I-A-39],1.13
8,CCN(C(=O)c1cnc(SC)n1C)c1cccnc1 [I-A-44],0.80
9,CN(C(=O)c1cnc(Sc2ccc(Cl)cc2)n1C)c1cccnc1 [I-A-57],2.02
10,CN(C(=O)c1cnc(Sc2cccc(Cl)c2)n1C)c1cccnc1 [I-A-66],1.97
11,CN(C(=O)c1cnc(S(=O)(=O)c2cc(Cl)cc(Cl)c2)n1C)c1cccnc1 [I-A-78],2.37

# Same assay, conditions: method [b]
row,Compound,logP[b]
1,Cc1cc(C)nc(Sc2ncc(C(=O)Nc3cccnc3)n2C)n1 [I-A-4],1.97
2,CCCCCSc1ncc(C(=O)N(C)c2cccnc2)n1C [I-A-6],2.33
3,CN(C(=O)c1cnc(SCc2ccccc2)n1C)c1cccnc1 [I-A-7],1.91
4,CN(C(=O)c1c(Cl)nc(Sc2ncccn2)n1C)c1cccnc1 [I-A-15],1.34
5,COCCCSc1ncc(C(=O)N(C)c2cccnc2)n1C [I-A-20],1.35
6,CC(C)=CCSc1ncc(C(=O)N(C)c2cccnc2)n1C [I-A-35],1.96
7,CON=C(C)CSc1ncc(C(=O)N(C)c2cccnc2)n1C [I-A-39],1.37 and 1.45
8,CCN(C(=O)c1cnc(SC)n1C)c1cccnc1 [I-A-44],1.30
9,CN(C(=O)c1cnc(Sc2ccc(Cl)cc2)n1C)c1cccnc1 [I-A-57],2.14
10,CN(C(=O)c1cnc(Sc2cccc(Cl)c2)n1C)c1cccnc1 [I-A-66],2.11
11,CN(C(=O)c1cnc(S(=O)(=O)c2cc(Cl)cc(Cl)c2)n1C)c1cccnc1 [I-A-78],2.53

# Test system: southern root-knot nematode (Meloidogyne incognita)
# Test: Meloidogyne incognita test (gall formation on lettuce)
# Format: in vivo
# Settings: application rate 20 ppm; after 14 days
# Protocol: Meloidogyne incognita Test
# Solvent: 125.0 parts by weight of acetone
# To produce a suitable preparation of active compound, 1 part by weight of active compound is mixed with the stated amount of solvent and the concentrate is diluted with water to the desired concentration.
# Vessels are filled with sand, active compound solution, an egg/larvae suspension of the southern root-knot nematode (Meloidogyne incognita) and lettuce seeds. The lettuce seeds germinate and the plants develop. The galls develop on the roots.
# After 14 days, the nematicidal efficacy in % is determined by the formation of galls. 100% means that no galls were found; 0% meant that the number of galls on the treated plants corresponds to the untreated control.
row,Compound,nematicidal efficacy (formation of galls) [%]
1,CN(C(=O)c1cnc(SCc2ccccc2)n1C)c1cccnc1 [I-A-7],90
2,CC(C)=CCSc1ncc(C(=O)N(C)c2cccnc2)n1C [I-A-35],90

# Test system: green peach aphid (Myzus persicae)
# Test: Myzus persicae spray test (Chinese cabbage leaf discs)
# Format: in vivo
# Settings: application rate 100 g/ha; after 5 or 6 days; Chinese cabbage leaf discs
# Outline: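 Leaf discs bearing all aphid stages are sprayed with compound dissolved in acetone/DMF and diluted with water containing 1000 ppm emulsifier. Efficacy in % is scored after 5 or 6 days: 100% means all aphids killed, 0% none killed.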
row,Compound,efficacy (aphids killed) [%]
1,CN(C(=O)c1cnc(S(=O)(=O)c2cc(Cl)cc(Cl)c2)n1C)c1cccnc1 [I-A-78],90

# Same assay, conditions: application rate 500 g/ha; after 5 or 6 days; Chinese cabbage leaf discs
row,Compound,efficacy (aphids killed) [%]
1,CCCCCSc1ncc(C(=O)N(C)c2cccnc2)n1C [I-A-6],90
2,CN(C(=O)c1cnc(SCc2ccccc2)n1C)c1cccnc1 [I-A-7],90
3,CON=C(C)CSc1ncc(C(=O)N(C)c2cccnc2)n1C [I-A-39],90

# Test system: greenhouse red spider mite (Tetranychus urticae)
# Test: Tetranychus urticae spray test, OP-resistant (bean leaf discs)
# Format: in vivo
# Settings: application rate 500 g/ha, after 6 days
# Protocol: Tetranychus urticae—Spray Test, OP-Resistant
# Solvent: 78.0 parts by weight of acetone • • 1.5 parts by weight of dimethylformamide
# (§1) Emulsifier: alkylaryl polyglycol ether
# (§2) To produce a suitable active compound preparation, 1 part by weight of active compound is dissolved using the stated parts by weight of solvent and made up with water containing an emulsifier concentration of 1000 ppm until the desired concentration is attained. To produce further test concentrations, the preparation is diluted with emulsifier-containing water.
# Discs of bean leaves (Phaseolus vulgaris) infested with all stages of the greenhouse red spider mite (Tetranychus urticae) are sprayed with an active compound preparation of the desired concentration.
# After 6 days, the efficacy in % is determined. 100% means that all the spider mites had been killed; 0% means that no spider mites had been killed.
row,Compound,efficacy (spider mites killed) [%]
1,CCCCCSc1ncc(C(=O)N(C)c2cccnc2)n1C [I-A-6],90
2,CN(C(=O)c1cnc(S(=O)(=O)c2cc(Cl)cc(Cl)c2)n1C)c1cccnc1 [I-A-78],90

# Test system: larvae of the mustard beetle (Phaedon cochleariae)
# Test: Phaedon cochleariae spray test (Chinese cabbage leaf discs)
# Format: in vivo
# Settings: application rate 500 g/ha, after 7 days
# Protocol: Phaedon cochleariae—Spray Test
# (§3) Solvents: 78.0 parts by weight of acetone • • 1.5 parts by weight of dimethylformamide
# as §1, §2
# After 7 days, the efficacy in % is determined. 100% means that all beetle larvae were killed; 0% means that no beetle larvae were killed.
row,Compound,efficacy (beetle larvae killed) [%]
1,CN(C(=O)c1c(Cl)nc(Sc2ncccn2)n1C)c1cccnc1 [I-A-15],83

# Test system: green peach aphid (Myzus persicae)
# Test: Myzus persicae spray test (bell pepper plants)
# Format: in vivo
# Settings: application rate 20 ppm, after 6 days
# Protocol: Myzus persicae—Spray Test
# Solvent: 14 parts by weight of dimethylformamide
# as §1
# as §2, with “water. If the addition of ammonium salts and/or penetrants is required, these are each added in a concentration of 1000 ppm to the formulation solution.” for “water.”
# Bell pepper plants (Capsicum annuum) severely infested with the green peach aphid (Myzus persicae) are treated by spraying with the active compound preparation in the desired concentration.
# After 6 days, the kill in % is determined. 100% means that all of the aphids have been killed; 0% means that none of the aphids have been killed.
row,Compound,efficacy (kill of aphids) [%]
1,Cc1cc(C)nc(Sc2ncc(C(=O)Nc3cccnc3)n2C)n1 [I-A-4],99
2,COCCCSc1ncc(C(=O)N(C)c2cccnc2)n1C [I-A-20],99
3,CCN(C(=O)c1cnc(SC)n1C)c1cccnc1 [I-A-44],100
4,CN(C(=O)c1cnc(Sc2ccc(Cl)cc2)n1C)c1cccnc1 [I-A-57],99

# Same assay, conditions: application rate 100 ppm, after 6 days
row,Compound,efficacy (kill of aphids) [%]
1,CN(C(=O)c1cnc(Sc2cccc(Cl)c2)n1C)c1cccnc1 [I-A-66],99

# Test system: green peach aphid (Myzus persicae)
# Test: Contrasting example: Myzus persicae spray test (MYZUPE)
# Format: in vivo
# Settings: MYZUPE, 100 g ai/ha, 6 dat
# Protocol: Myzus persicae—Spray Test (MYZUPE)
# as §3, §1, §2
# Discs of Chinese cabbage leaves (Brassica pekinensis), infested by all stages of the green peach aphid (Myzus persicae) are sprayed with an active compound preparation of the desired concentration.
# After the desired period of time, the efficacy in % is determined. 100% means that all aphids were killed; 0% means that no aphids were killed.
row,Compound,% efficacy [%]
1,Cc1cc(C)nc(Sc2ncc(C(=O)Nc3cccnc3)n2C)n1 [I-A-4],70
2,CCCCCSc1ncc(C(=O)N(C)c2cccnc2)n1C [I-A-6],90
3,CN(C(=O)c1cnc(SCc2ccccc2)n1C)c1cccnc1 [I-A-7],70
4,CN(C(=O)c1cnc(S(=O)(=O)c2cc(Cl)cc(Cl)c2)n1C)c1cccnc1 [I-A-78],90

# Test system: greenhouse red spider mite (Tetranychus urticae)
# Test: Contrasting example: Tetranychus urticae spray test, OP resistant (TETRUR)
# Format: in vivo
# Settings: 500 g ai/ha, 6 dat
# Protocol: Tetranychus urticae—Spray Test; OP Resistant (TETRUR)
# as §3, §1, §2
# Discs of bean leaves (Phaseolus vulgaris), infested by all stages of the greenhouse red spider mite (Tetranychus urticae) are sprayed with an active compound preparation of the desired concentration.
# After the desired period of time, the efficacy in % is determined. 100% means that all spider mites were killed; 0% means that no spider mites were killed.
row,Compound,% efficacy [%]
1,CCCCCSc1ncc(C(=O)N(C)c2cccnc2)n1C [I-A-6],90
2,CON=C(C)CSc1ncc(C(=O)N(C)c2cccnc2)n1C [I-A-39],70
3,CN(C(=O)c1cnc(S(=O)(=O)c2cc(Cl)cc(Cl)c2)n1C)c1cccnc1 [I-A-78],90

# Test system: larvae of the mustard beetle (Phaedon cochleariae)
# Test: Contrasting example: Phaedon cochleariae spray test (PHAECO)
# Format: in vivo
# Settings: 500 g ai/ha, 7 dat
# Protocol: Phaedon cochleariae—Spray Test (PHAECO)
# as §3, §1, §2
# After the desired period of time, the efficacy in % is determined. 100% means that all beetle larvae were killed; 0% means that no beetle larvae were killed.
row,Compound,% efficacy [%]
1,CN(C(=O)c1c(Cl)nc(Sc2ncccn2)n1C)c1cccnc1 [I-A-15],83
